The numbers were not newly measured in patent US11773111B1, “Selective 5-LO inhibitors for the treatment of bronchial asthma” (KING FAISAL UNIVERSITY, priority 2022, dated 2023), which cites them from elsewhere.

The conditions of data set [1]: clinical use.
Assay in data set [2]: not given
The source holds these as a separate data set.

Consider `CC(c1cc2ccccc2s1)N(O)C(N)=O` (stereo not drawn) [Zileuton], for which the serum half-life was 3 h. Further, the undesirable side effects entry in data set [1] was “hepatoxicity”. For the same molecule, the plasma protein binding in data set [2] is recorded as 93%.
